Source: patent publication US10426773B2, “Systems pharmacology for treating ocular disorders” (Case Western Reserve Univeristy, priority 2011, dated 2019)
“Also recorded” adds a separate entry of the source. Counter-ions that a name gives are not always drawn.

Tests used:
[1] = molecular target: T1, Dopamine D1 receptor (D1R) (Homo sapiens, UniProt P21728); assay: BRET assay for G protein activation in live cells, D1R-Gs; type: cell-based; conditions: for antagonistic activity on D1R (inhibition of BRET signal): preincubation with ligand, then 1 μM dopamine
T1 construct: host or cells: HEK293T/17
T1 sequence (P21728 whole entry): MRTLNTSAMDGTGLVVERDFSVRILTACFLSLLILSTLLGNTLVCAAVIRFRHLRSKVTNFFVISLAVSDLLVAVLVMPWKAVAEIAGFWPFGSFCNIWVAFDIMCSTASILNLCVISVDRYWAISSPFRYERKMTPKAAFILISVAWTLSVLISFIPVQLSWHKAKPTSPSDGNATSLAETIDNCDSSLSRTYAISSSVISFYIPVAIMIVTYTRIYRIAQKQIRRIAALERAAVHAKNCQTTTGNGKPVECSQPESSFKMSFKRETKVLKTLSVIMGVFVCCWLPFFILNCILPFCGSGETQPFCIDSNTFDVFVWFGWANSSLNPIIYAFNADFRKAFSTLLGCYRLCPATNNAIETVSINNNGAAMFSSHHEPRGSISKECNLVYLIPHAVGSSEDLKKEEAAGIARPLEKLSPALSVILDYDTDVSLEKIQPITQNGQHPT
Excerpt: (§1) FIGS. 35(A-C) illustrate characterizing the activity of BRM, MTP, DOX, and TAM on dopamine and adrenaline receptors (A) Schematic representation of the BRET assay used to evaluate actions of drugs on selected GPCRs. […] The free Venus-Gβγ then interacts with the Gβγ-effector mimetic masGRK3ct-Nluc to produce the BRET signal. GDP, guanosine diphosphate; GRK, G protein-coupled receptor kinase; Nluc, nanoluciferase. (B) Left: Representative BRET signal traces recorded upon activation of D4R with indicated drugs in cells expressing Gαo and Venus-Gβγ, illustrating the agonism assay. Right: Representative traces of D2R responses to 1 μM dopamine in the absence (control) or presence of indicated drugs, illustrating antagonism assay. Note that, in the antagonism assay shown, the black trace overlaps with the red trace and therefore is not visible. (C) Top: Quantification of agonistic activity of ligands on D2R, D4R, D1R, and ADRA1A. D2R-GO, D4R-GO, D1R-Gs, and ADRA1A-Gq signaling were reconstituted in HEK293T/17 cells by transient transfection separately. Maximum amplitudes induced by dopamine (DA; 100 μM), noradrenaline (NA; 100 μM), BRM (25 μM), MTP (100 μM), DOX (50 μM), and TAM (100 μM) were plotted as bar graphs. […] The activity is plotted as percent inhibition. Data are means±SD. Results are representative of two independent experiments each performed with 12 replicates.
(§2) Dopamine D1, dopamine D4, and α1A-adrenergic receptors were purchased from cDNA Resource Center (Bloomsburg University, Bloomsburg, Pa.). Plasmid encoding the Flag-tagged, long isoform of the D2 dopamine receptor was a gift from A. Kovoor (University of Rhode Island). pCMV5 plasmids encoding GαoA were gifts from H. Itoh (Nara Institute of Science and Technology, Japan). Plasmids encoding Venus 156-239-Gβ1 and Venus 1-155-Gγ2 were gifts from N. Lambert (Georgia Regents University). Plasmids encoding RGS9-2, Gβ5S, R7BP, and masGRK3ct-Nluc were previously described.
(§3) BRET experiments were performed as previously reported with slight modifications. […] BRET measurements were performed using a microplate reader (POLARstar Omega, BMG Labtech) equipped with two emission photomultiplier tubes. […] The BRET signal is determined by calculating the ratio of the light emitted by Gβ1γ2-Venus (535 nm) over the light emitted by masGRK3ct-Nluc (475 nm). The average baseline value recorded before agonist stimulation was subtracted from BRET signal values, and the resulting difference (ABRET ratio) was obtained.
(§4) We used a real-time kinetic assay in which G protein activation by GPCRs is quantified by monitoring changes in the bioluminescence resonance energy transfer (BRET) signal between Venus-tagged Gβγ and its luciferase-tagged reporter in living cells (FIG. 35A). […]

[2] = test system: retinal transcriptome of Abca4−/−Rdh8−/− mice; assay: RNA-seq retinal transcriptome of pretreated, light-exposed Abca4−/−Rdh8−/− mice (differential expression, Pearson, GSEA); type: in vivo, mouse; conditions: for NES, CHEMOKINE SIGNALING gene set / NES, CYTOKINE- RECEPTOR INTERACTIO gene set / NES, P53 gene set / NES, TOLL-LIKE SIGNALING gene set / NES, APOPTOSIS gene set: GSEA, vehicle-treated light-exposed retinas against drug-treated; for NES, APOPTOSIS gene set: P in brackets not reported here; for number of light-up-regulated gene sets significantly down-regulated (GSEA): of 44 gene sets up-regulated by light, mono doses BRM 1, MTP 10, TAM 2.5, DOX 10 mg/kg bw
[3] = molecular target: T2, α1A-adrenergic receptor (ADRA1A) (Homo sapiens, UniProt P35348); assay: BRET assay for G protein activation in live cells, ADRA1A-Gq; type: cell-based; conditions: for antagonistic activity on ADRA1A (inhibition of BRET signal): preincubation with ligand, then 1 μM noradrenaline
T2 construct: host or cells: HEK293T/17
T2 sequence (P35348 1-466): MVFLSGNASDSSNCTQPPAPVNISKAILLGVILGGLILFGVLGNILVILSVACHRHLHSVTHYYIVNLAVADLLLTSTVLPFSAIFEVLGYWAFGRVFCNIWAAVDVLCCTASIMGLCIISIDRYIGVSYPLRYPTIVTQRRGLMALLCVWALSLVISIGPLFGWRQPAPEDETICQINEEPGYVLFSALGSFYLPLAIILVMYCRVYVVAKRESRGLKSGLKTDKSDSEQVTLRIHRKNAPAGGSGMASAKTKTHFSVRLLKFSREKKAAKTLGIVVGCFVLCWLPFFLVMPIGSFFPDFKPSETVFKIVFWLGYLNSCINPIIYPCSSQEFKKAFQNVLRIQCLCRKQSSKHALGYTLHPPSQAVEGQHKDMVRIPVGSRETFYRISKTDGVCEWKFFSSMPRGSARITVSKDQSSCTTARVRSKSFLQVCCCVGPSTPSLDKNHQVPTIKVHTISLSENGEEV
Excerpt: as §1, §2, §3, §4

BALB/c mice [4] = assay: Light-induced retinal degeneration in BALB/c mice, SLO autofluorescence imaging; type: in vivo, mouse; conditions: DOX 10, GUB 2.0, SQ 0.5 mg/kg, 7 days after light
Description: SLO (Heidelberg Engineering) was carried out for in vivo whole fundus imaging of mouse retinas. […] Numbers of autofluorescent spots were counted and subjected to statistical analyses as described below.
These drugs were administered to 4-week-old BALB/c mice by intraperitoneal injection 30 min prior to white light exposure at 10,000 lux for 1 h. Retinal morphology was assessed 7 days after light exposure by OCT imaging and histological examination.

BALB/c mice [5] = assay: Light-induced retinal degeneration in BALB/c mice, retinal morphology (OCT, histology, IHC); type: in vivo, mouse; conditions: for retinal morphology / ONL (OCT, histology): ip pretreatment 30 min before 10,000 lux, 7 days after light
Abca4−/−Rdh8−/− mice = assay: Bright light-induced retinal degeneration in Abca4−/−Rdh8−/− mice, OCT imaging of retinal structure; type: in vivo, mouse; conditions: for Percent of mice with: subeffective doses BRM 0.1, MTP 1, TAM 0.05, DOX 1 mg/kg bw, OCT 7 days; for retinal / photoreceptor morphology by OCT imaging: pretreatment before light 10,000 lux 30 min, OCT 7 days after light exposure; for retinal protection at full individual dose: BRM 1, MTP 10, TAM 2.5 mg/kg bw individually; for light-exposed mice with complete retinal protection: lower doses BRM 0.1, MTP 1, TAM 0.05 mg/kg bw, alone or all three combined
[6] = molecular target: T3, D2 dopamine receptor (D2R) (Homo sapiens, UniProt P14416); assay: BRET assay for G protein activation in live cells, D2R-Go; type: cell-based; conditions: for antagonistic activity on D2R (inhibition of BRET signal): preincubation with ligand, then 1 μM dopamine
T3 construct: Flag; host or cells: HEK293T/17
T3 sequence (P14416 whole entry): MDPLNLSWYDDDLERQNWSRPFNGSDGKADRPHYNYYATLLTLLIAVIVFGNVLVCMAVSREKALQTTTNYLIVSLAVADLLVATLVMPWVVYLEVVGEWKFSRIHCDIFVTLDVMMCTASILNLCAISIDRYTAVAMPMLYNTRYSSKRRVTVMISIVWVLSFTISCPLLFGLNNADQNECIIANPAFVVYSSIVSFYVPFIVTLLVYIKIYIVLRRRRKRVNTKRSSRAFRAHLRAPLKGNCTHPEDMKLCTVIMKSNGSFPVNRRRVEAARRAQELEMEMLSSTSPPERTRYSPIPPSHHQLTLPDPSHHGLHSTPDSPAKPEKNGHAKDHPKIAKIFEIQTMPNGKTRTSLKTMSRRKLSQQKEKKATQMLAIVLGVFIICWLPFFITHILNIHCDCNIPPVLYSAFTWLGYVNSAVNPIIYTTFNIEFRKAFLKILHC
Excerpt: as §1, with “Results are representative of two independent experiments each performed with 12 replicates.” left out
as §3, §4

[7] = Table 14 (complete protection, ONL ≥50 μm)
[8] = Table 14 (no protection, ONL ≤20 μm)
[9] = HEK293T/17 cells, BRM 25 μM, MTP 100 μM, DOX 50 μM, TAM 100 μM

Row | Structure (SMILES) | antagonistic activity on D1R (inhibition of BRET signal) [1] | NES, CHEMOKINE SIGNALING gene set [2] | NES, CYTOKINE- RECEPTOR INTERACTIO gene set [2] | NES, P53 gene set [2] | NES, TOLL-LIKE SIGNALING gene set [2] | NES, APOPTOSIS gene set [2] | number of light-up-regulated gene sets significantly down-regulated (GSEA) [2] | antagonistic activity on ADRA1A (inhibition of BRET signal) [3] | retinal morphology / ONL (OCT, histology) (BALB/c mice [5]) | Percent of mice with (Abca4−/−Rdh8−/− mice; [7]) | Percent of mice with (Abca4−/−Rdh8−/− mice; [8]) | retinal protection at full individual dose (Abca4−/−Rdh8−/− mice) | light-exposed mice with complete retinal protection (Abca4−/−Rdh8−/− mice) | antagonistic activity on D2R (inhibition of BRET signal) [6] | further results
1 | COc1cc2nc(N3CCN(C(=O)C4COc5ccccc5O4)CC3)nc(N)c2cc1OC.CS(=O)(=O)O (stereo not drawn) [Doxazosin] | partial antagonistic effect | 1.41 | 2.42 | 2.18 | 1.99 | 1.75 | 28 gene sets | full antagonist | retinal morphology of drug-treated mice was maintained | 0% of mice | 100% of mice |  |  |  | autofluorescent spots by SLO (BALB/c mice [4]): prevented; retinal / photoreceptor morphology by OCT imaging (Abca4−/−Rdh8−/− mice; listed as DOX): substantial protection on photoreceptor morphology; also recorded: dose-dependent fashion; half maximal effective (protective) dose (Abca4−/−Rdh8−/− mice; protection from bright light-induced degeneration, dose-response, FIG. 25A/B): 0.4 mg/kg
2 | COCCc1ccc(OCC(O)CNC(C)C)cc1 (stereo not drawn) [MTP, metoprolol tartrate] | no agonistic or antagonistic effects | 1.44 | 2.30 | 2.04 | 2.05 | 1.61 | 36 gene sets | no agonistic or antagonistic effects | preserved the ONL | 25% of mice | 41.7% of mice | Complete retinal protection | 25% | no agonistic or antagonistic effects | agonistic activity on D1R (BRET signal) [1, 9]: no agonistic or antagonistic effects; preservation of retinal gene expression pattern (in words) ([2]; retinas 1 day after light exposure): conferred the most protection; agonistic activity on ADRA1A (BRET signal) [3, 9]: no agonistic or antagonistic effects; PNA staining of cone photoreceptors (BALB/c mice [5]; BRM 2.5 mg/kg bw, MTP 10 mg/kg bw): nearly normal pattern of PNA staining; retinal / photoreceptor morphology by OCT imaging (Abca4−/−Rdh8−/− mice): dose-dependent retinal protection; agonistic activity on D2R (BRET signal) [6, 9]: no agonistic or antagonistic effects
3 | CCOc1ccccc1OCCN[C@H](C)Cc1ccc(OC)c(S(N)(=O)=O)c1.Cl [Tamsulosin] | partial antagonist | 1.39 | 2.29 | 1.98 | 1.83 | 1.60 | 32 gene sets | antagonistic activity |  | 16.7% of mice | 58.3% of mice | Complete retinal protection | 17% | antagonistic activity | retinal / photoreceptor morphology by OCT imaging (Abca4−/−Rdh8−/− mice; listed as TAM): substantial protection on photoreceptor morphology; also recorded: dose-dependent retinal protection
